Molecular target: T1, Caspase-3 (Homo sapiens, UniProt P42574)
T1 construct: purchased Calbiochem
T1 sequence (P42574 29-175 limits assumed): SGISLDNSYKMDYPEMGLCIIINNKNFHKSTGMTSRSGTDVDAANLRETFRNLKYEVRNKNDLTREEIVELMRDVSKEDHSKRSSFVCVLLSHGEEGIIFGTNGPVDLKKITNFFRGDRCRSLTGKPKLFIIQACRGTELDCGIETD
T1 sequence (P42574 176-277 limits assumed): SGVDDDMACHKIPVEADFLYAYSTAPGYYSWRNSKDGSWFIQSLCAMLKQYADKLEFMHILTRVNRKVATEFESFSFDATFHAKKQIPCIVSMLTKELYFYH
Experiment: Caspase-3 selectivity assay (Calbiochem kit, colorimetric)
Assay type: biochemical
Text: This is a selectivity assay providing information about the specificity of the compounds. A cysteine residue located within the active pocket of the catalytic domain that is conserved between the […] like caspase-3 and the protein tyrosine phosphatases like PTPN12 has a thiol group within this cysteine amino acid that may interact with specific R-groups with inhibiting compounds with in vitro enzyme inhibiting activity. Also, caspase inhibition can prevent apoptosis from occurring in some cases via the caspase cascade. As the potential for cross-inhibitory activity and nonselectivity exists, the caspase-3 assay is performed on PTN12 inhibitors.
The Calbiochem caspase-3 assay kit was utilized according to package insert instructions. The assay is useful for screening for caspase-3 inhibitors measuring the protease activity of caspase-3 and other caspase-3-like activities. Cleavage is monitored colorimetrically by measuring the increase in absorbance at 405 nm. Assays were performed in a 96-well microtiter plate format.

- inhibition at 10 µM (@ 10 μM): 3%
- inhibition at 100 µM (@ 100 μM): 27%
Structure (SMILES): O=C1C(=CC=CC=C2Sc3ccccc3N2CCCS(=O)(=O)O)Sc2ccccc21 [3-{2-[4-(3-Oxo-3H-benzo[b]thiophen-2-ylidene)-but-2-enylidene]-benzothiazol-3-yl}-propane-1-sulfonic acid]

Source: patent publication US20060235061A1, “Methods of using benzothiophenone derivatives to treat cancer or inflammation” (QLT,Inc., priority 2002, published 2006)
